Measurements published in PubChem BioAssay (NCI).
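Five compound concentrations were applied to cells in 96-well plates for 48 hours; endpoints were derived by simple linear interpolation of the resulting dose-response curve. TGI denotes the concentration required for complete inhibition of growth.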 *1 amine or outer side, *2 acyl side, *3 side chain or, on linkers, in order; H or OH if unused. Where a SMILES comes first, the peptide text is derived from it. Bridges are numbered along the chain shown (N, C = ends). Roman numbers before positions name the chains, in order. [ ]: non-standard residue; d: D form. Actinocin(9to1) = Cc1c2oc3c(C)ccc(C(=O)[*:1])c3nc-2c(C(=O)[*:2])c(N)c1=O; Hyp = O=C(O)[CH]1C[CH](O)CN1; NMeV = CN[CH](C(=O)O)C(C)C; Sar = CNCC(=O)O

What was measured:
Experiment in all cases: NCI tumour cell line growth inhibition, 48 h
EKVX NSCLC = test system: EKVX NSCLC
HCT-116 colon = test system: HCT-116 colon
HL-60(TB) leukemia = test system: HL-60(TB) leukemia
M14 melanoma = test system: M14 melanoma
MDA-N = test system: MDA-N
NCI-H23 lung = test system: NCI-H23 lung
SK-MEL-5 melanoma = test system: SK-MEL-5 melanoma
SR leukemia = test system: SR leukemia
UO-31 renal = test system: UO-31 renal
DMS 273 small cell lung = test system: DMS 273 small cell lung
KM20L2 colon = test system: KM20L2 colon
M19-MEL melanoma = test system: M19-MEL melanoma

Compound	TGI (EKVX NSCLC) [µM]	TGI (HCT-116 colon) [µM]	TGI (HL-60(TB) leukemia) [µM]	TGI (M14 melanoma) [µM]	TGI (MDA-N) [µM]	TGI (NCI-H23 lung) [µM]	TGI (SK-MEL-5 melanoma) [µM]	TGI (SR leukemia) [µM]	TGI (UO-31 renal) [µM]	TGI (DMS 273 small cell lung) [µM]	TGI (KM20L2 colon) [µM]	TGI (M19-MEL melanoma) [µM]
Cc1cc2c(cc1C)C(=O)C1(C2)Cc2cc3c(cc2C1=O)CCC3 (stereo unspecified)	> 100	> 100	> 100	> 100	> 100	> 100	> 100	> 100	> 100	–	–	–
O=C(N/N=C\c1cccc2ccccc12)Nc1cccc2ccccc12	> 100	72	60.8	> 100	21.2	> 100	> 100	13.6	> 100	–	–	–
O=C(O)c1c2c(cc3c1CC1(Cc4cc5c(cc4C1=O)CCC5)C3)CCC2 (stereo unspecified)	> 100	> 100	> 100	> 100	> 100	> 100	> 100	> 100	> 100	–	–	–
O=[N+]([O-])c1cc2ccc(N(CCO)CCO)nc2nc1N(CCO)CCO	> 100	> 100	> 100	> 100	> 100	> 100	> 100	> 100	> 100	–	–	–
C=CC(=O)N1C/C(=C\c2ccc([N+](=O)[O-])cc2)C(=O)/C(=C/c2ccc([N+](=O)[O-])cc2)C1	0.829	0.115	> 100	0.41	0.856	0.791	2.54	> 100	0.375	–	–	–
COC1=C(C)C(=O)C2=C(C1=O)C1C3CC4=C(C(=O)C(OC)=C(C)C4=O)C(CNC(=O)C(C)O)N3C(C#N)C(C2)N1C (stereo unspecified)	0.108	2.18	< 0.01	0.0173	< 0.0107	0.0183	< 0.01	> 100	0.731	< 0.0111	3.1	< 0.01
O=C(Nc1ccccc1Cl)c1ccc([N+](=O)[O-])cc1	> 100	–	–	> 100	–	> 100	> 100	–	> 100	> 100	> 100	> 100
N/C(=N\Nc1ccc(Cl)cc1)c1cnccn1	> 100	> 100	> 100	> 100	> 100	> 100	54.6	> 100	> 100	–	–	–
COc1ccc(NC(C(N)=O)c2cc3cc(Br)ccc3nc2Cl)cc1 (stereo unspecified)	> 100	> 100	> 100	> 100	> 100	> 100	> 100	51.6	> 100	–	–	–
O=C(CN1CCCCC1)Nc1ccc2c(c1)C1Oc3ccccc3CC1CO2 (stereo unspecified)	53.9	35.2	> 100	32.3	36.7	> 100	26.7	> 100	72.7	–	–	–
C=CC(C)C1(CCCOCc2ccccc2)C(=S)N2CCC3(CC24CCCC14)OCCO3 (stereo unspecified)	> 100	–	5.2	–	–	> 100	–	–	> 100	> 100	> 100	> 100
CCN(CC)c1ccc(/C=C2\CCc3ccc([N+](=O)[O-])cc3C2=O)cc1	> 100	> 100	5.33	> 100	0.523	> 100	> 100	> 100	> 100	–	–	–
CCOC1NC(=O)Oc2cc3ccccc3cc21 (stereo unspecified)	> 100	> 100	> 100	> 100	> 100	> 100	> 100	> 100	> 100	–	–	–
C=CCOC(=O)N1c2ccc(O)cc2[C@@]23O[C@@]24[C@@H]1C#C/C=C\C#C[C@]3(O)C(OC)(OC)C[C@@H]4C	> 100	> 100	72	79.9	77.5	93	27.4	62.2	> 100	–	–	–
CC1(C)C2CCC1C(=O)[C@@]1(C=CC(=O)CC1)C2 (stereo partly specified)	> 100	> 100	> 100	> 100	> 100	> 100	> 100	> 100	> 100	–	–	–
Cc1c(C)c(C)c(-n2c(=O)n(C)c(=O)n2-c2cc(C(C)(C)C)cc(C(C)(C)C)c2O)c(C)c1C	22.8	18.4	11.4	25.9	22.9	24	18.5	> 46.9	14.1	–	–	–

Compound	TGI (EKVX NSCLC) [µM]	TGI (HCT-116 colon) [µM]	TGI (HL-60(TB) leukemia) [µM]	TGI (M14 melanoma) [µM]	TGI (MDA-N) [µM]	TGI (NCI-H23 lung) [µM]	TGI (SK-MEL-5 melanoma) [µM]	TGI (SR leukemia) [µM]	TGI (UO-31 renal) [µM]	TGI (DMS 273 small cell lung) [µM]	TGI (KM20L2 colon) [µM]	TGI (M19-MEL melanoma) [µM]
CCCCc1ccc(Nc2nc(Cl)c3c(ncn3C3CC(Oc4ccc(C)cc4)C(COc4ccc(C)cc4)O3)n2)cc1 (stereo unspecified)	> 100	> 100	> 100	> 100	> 100	> 100	> 100	> 100	> 100	–	–	–
COc1ccc(-c2ncn(C[Si](C)(C)C)c2-c2ccc(OC)cc2)cc1	12.1	13	4.57	14.8	10.9	18.5	10.2	66.2	10	–	–	–
COC1=CC(=O)C=C(OC)C1=O	13	15.1	12.4	–	–	22.7	37.5	–	54.1	76.8	66.8	8.19
COC(=O)C(Cc1ccc(N(C)C)cc1)(NC(=O)c1ccccc1)P(=O)(OC)OC (stereo unspecified)	> 100	> 100	> 100	> 100	–	> 100	> 100	> 100	> 100	> 100	> 100	> 100
Nn1c(=O)[nH]c2ncn(Cc3ccccc3)c2c1=O	> 100	> 100	> 100	> 100	> 100	> 100	> 100	> 100	> 100	–	–	–
O=C(C/C(=N/O)C(F)(F)F)c1cccs1	> 100	> 100	> 100	> 100	> 100	> 100	> 100	> 100	> 100	–	–	–
O=c1c2cnccc2cc2c3ccccc3ccn12	> 100	> 100	> 100	> 100	> 100	> 100	> 100	> 100	> 100	–	–	–
CC(C)(C)NC(=O)/C(=C\Sc1ccccc1)c1ccccc1	> 100	> 100	> 100	> 100	> 100	> 100	> 100	> 100	> 100	–	–	–
COc1ccc2c(c1)NC1(CCN(CCCC(=O)c3ccc(F)cc3)CC1)N=N2	> 100	36	32.8	26.6	31.6	97.7	25.3	35.4	57.8	–	–	–
O=C(OC1CN2CCC1CC2)N(c1ccccc1)c1ccccc1 (stereo unspecified)	> 100	> 100	> 100	> 100	> 100	> 100	> 100	> 100	> 100	–	–	–
CO/N=C(\C([O-])=N\[n+]1cnn(CC(=O)OC(C)(C)C)c1)c1csc(NC(c2ccccc2)(c2ccccc2)c2ccccc2)n1	> 10	> 10	> 10	> 10	> 10	> 10	> 10	> 10	> 10	–	–	–
O=c1[nH]nc(Nc2ccccc2)c2nnn(C3CCCCC3)c12	> 100	> 100	> 100	> 100	> 100	> 100	> 100	> 100	> 100	–	–	–
CNC(=O)SCC(NC(=O)CCC(N)C(=O)O)C(=O)NCC(=O)O (stereo unspecified)	> 100	> 100	> 31.6	–	–	> 100	> 100	–	> 100	> 100	> 100	> 100
C=CCOC(OCC=C)/C(Br)=C/C	> 100	28.1	> 100	> 100	> 100	> 100	> 100	> 100	> 100	–	–	–
Cc1c2oc3c(C)ccc(C(=O)NC4C(=O)NC(C(C)C)C(=O)N5CC(O)CC5C(=O)N(C)CC(=O)N(C)C(C(C)C)C(=O)OC4C)c3nc-2c(C(=O)NC2C(=O)NC(C(C)C)C(=O)N3CC(O)CC3C(=O)N(C)CC(=O)N(C)C(C(C)C)C(=O)OC2C)c(N)c1=O (stereo unspecified) (I: TV[Hyp][Sar][NMeV] / II: TV[Hyp][Sar][NMeV]; ester I:1-I:C, II:1-II:C; linker I:N-II:N via Actinocin(9to1); configuration not given here)	> 1	> 1	> 1	> 1	> 1	> 1	> 1	> 1	> 1	–	–	–
